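Where inhibition never reached the appropriate level, the endpoint shown equals the highest concentration tested. Otherwise, values were interpolated linearly from a five-concentration, 48-hour dose response in 96-well plates. At the GI50, growth is halved.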 Activity calls are given as the source filed them. No stated cut-off is given here; in the data, active = GI50 up to about 1.1 µM and inactive = higher.
Legend:
Test in all cases: NCI anticancer screen, dose series, 48 h
[1] = system: HL-60
[2] = system: OVCAR-4
[3] = system: UO-31
[4] = system: NCI-H522
[5] = system: 786-0
[6] = system: U-251
[7] = system: PC-3
[8] = system: SK-OV-3
[9] = system: HCT-116
[10] = system: NCI/ADR-RES
[11] = system: SN12C
[12] = system: SW-620
[13] = system: OVCAR-3
[14] = system: LOX IMVI
[15] = system: MCF7
[16] = system: MDA-MB-231
[17] = system: UACC-62
[18] = system: COLO 205
[19] = system: RPMI-8226
[20] = system: SK-MEL-2

Measured: GI50

CNC(=O)OC(C)CN1c2ccccc2Sc2ccccc21 (stereo unspecified)
inactive: [1] 7.69 µM | [2] 74.5 µM | [3] > 100 µM | [4] > 100 µM | [5] 64.6 µM | [6] > 100 µM | [7] 8.63 µM | [8] > 100 µM | [9] 57.5 µM | [10] 76 µM | [11] > 100 µM | [12] > 100 µM | [13] > 100 µM | [14] 75.2 µM | [15] > 100 µM | [16] > 100 µM | [17] > 100 µM | [18] 41.2 µM

CC1(C)C2CC(O)C1(C)CC2=O (stereo unspecified)
inactive: [1] > 100 µM | [2] > 100 µM | [3] > 100 µM | [4] > 100 µM | [5] > 100 µM | [19] > 100 µM | [6] > 100 µM | [7] > 100 µM | [8] > 100 µM | [9] > 100 µM | [10] > 100 µM | [11] > 100 µM | [12] > 100 µM | [13] > 100 µM | [14] > 100 µM | [15] > 100 µM | [16] > 100 µM | [17] > 100 µM | [18] > 100 µM

N#Cc1c(-c2ccco2)c2c(n(C3OC(CO)C(O)C(O)C3O)c1=S)CCCC2 (stereo unspecified)
inactive: [1] > 100 µM | [2] > 100 µM | [4] > 100 µM | [5] > 100 µM | [7] > 100 µM | [8] > 100 µM | [9] > 100 µM | [20] > 100 µM | [10] > 100 µM | [11] > 100 µM | [13] > 100 µM | [14] > 100 µM | [15] > 100 µM | [16] > 100 µM | [17] > 100 µM | [18] > 100 µM

CCc1c(C)c(C#N)c(=S)n(C2OC(CO)C(O)C(O)C2O)c1C (stereo unspecified)
inactive: [1] > 100 µM | [2] > 100 µM | [3] > 100 µM | [4] > 100 µM | [5] > 100 µM | [6] > 100 µM | [7] > 100 µM | [8] > 100 µM | [9] > 100 µM | [20] > 100 µM | [10] > 100 µM | [11] > 100 µM | [12] > 100 µM | [13] > 100 µM | [14] > 100 µM | [15] > 100 µM | [16] > 100 µM | [17] > 100 µM | [18] > 100 µM

CCOC(=O)C1C(=O)CC(C)(O)C(C(=O)OCC)C1c1ccc(O)c(OC)c1 (stereo unspecified)
inactive: [1] > 100 µM | [2] > 100 µM | [3] > 100 µM | [4] > 100 µM | [5] > 100 µM | [6] > 100 µM | [7] > 100 µM | [9] > 100 µM | [20] > 100 µM | [10] > 100 µM | [11] > 100 µM | [12] > 100 µM | [13] > 100 µM | [14] > 100 µM | [15] > 100 µM | [16] > 100 µM | [17] > 100 µM | [18] > 100 µM

CCOC(=O)CC(=O)Nc1c(C(=O)OCC)sc2nc(SC)nc(Nc3ccc(OC)c(OC)c3)c12
inactive: [1] > 100 µM | [2] 66.2 µM | [3] > 100 µM | [4] 13.6 µM | [5] 6.22 µM | [6] 6.4 µM | [7] > 100 µM | [9] 39.4 µM | [20] 25.6 µM | [10] 8.77 µM | [11] 60.3 µM | [12] > 100 µM | [13] 10.7 µM | [14] 39.4 µM | [15] 38.2 µM | [16] 18.5 µM | [17] 24.6 µM | [18] > 100 µM

O=[N+]([O-])c1ccc([I+]c2ccccc2)cc1
inactive: [1] 5.4 µM | [2] 4.33 µM | [3] 6.03 µM | [4] 1.92 µM | [5] 4.26 µM | [19] 11.2 µM | [6] 5.46 µM | [7] 5.52 µM | [8] 2.07 µM | [9] 3.77 µM | [10] 8.3 µM | [11] 1.61 µM | [12] 4.49 µM | [13] 3.13 µM | [15] 4.97 µM | [16] 3.95 µM | [17] 2.96 µM | [18] 3.11 µM

COc1cccc(CC2C(=O)N/C(=N\C(C)=O)N2C)c1OC(C)=O (stereo unspecified)
inactive: [1] > 100 µM | [2] > 100 µM | [3] > 100 µM | [4] > 100 µM | [5] > 100 µM | [6] > 100 µM | [7] > 100 µM | [8] > 100 µM | [9] > 100 µM | [20] > 100 µM | [10] > 100 µM | [11] > 100 µM | [12] > 100 µM | [13] > 100 µM | [14] > 100 µM | [15] > 100 µM | [16] > 100 µM | [17] > 100 µM | [18] > 100 µM

CC1=C(C)C(=O)O[C@@H]([C@](C)(O)[C@]2(O)CC[C@@]3(O)[C@@H]4C[C@H](O)[C@]5(O)[C@@H](O)C=CC(=O)[C@]5(C)[C@H]4CC[C@]23C)C1
inactive: [1] 18 µM | [2] > 100 µM | [3] > 100 µM | [4] 42.3 µM | [5] > 100 µM | [19] 49.9 µM | [6] 89.9 µM | [7] > 100 µM | [8] > 100 µM | [9] 86.9 µM | [20] > 100 µM | [11] > 100 µM | [12] > 100 µM | [13] > 100 µM | [14] 58.5 µM | [15] 46.2 µM | [16] > 100 µM | [17] 47.6 µM | [18] > 100 µM

O=C(c1cccc2cc(O)ccc12)c1cn(CCN2CCOCC2)c2ccccc12
inactive: [1] 28.2 µM | [3] 24.1 µM | [4] 30.3 µM | [5] 21.1 µM | [19] 47.1 µM | [7] 12 µM | [9] 20 µM | [20] 11 µM | [11] 31.8 µM | [12] 22.4 µM | [14] 20.6 µM | [15] 25.5 µM | [16] 19.5 µM | [17] 17.7 µM | [18] 45.7 µM

CCOC(=O)/C(=C\c1c(C)[nH]c2ccccc12)P(=O)(OCC)OCC
inactive: [2] > 100 µM | [4] > 100 µM | [5] > 100 µM | [19] > 100 µM | [6] > 100 µM | [8] > 100 µM | [9] > 100 µM | [10] > 100 µM | [11] > 100 µM | [12] > 100 µM | [13] > 100 µM | [14] > 100 µM | [15] > 100 µM | [16] > 100 µM | [17] > 100 µM | [18] > 100 µM

CCN(C(=O)N[C@H](C(=O)N[C@@H](CSC)C(=O)N[C@@H](C)C(=O)OC)C(C)C)c1ccccc1
inactive: [2] 20 µM | [3] 17.5 µM | [4] 10.2 µM | [5] 17.2 µM | [6] 15.9 µM | [7] 16.9 µM | [8] 15 µM | [9] 16.7 µM | [20] 20.3 µM | [10] > 100 µM | [11] 17.9 µM | [12] 14.6 µM | [13] 20 µM | [14] 10.4 µM | [15] 16.1 µM | [16] 15.1 µM | [17] 13.8 µM | [18] 17.9 µM

COC(=O)c1ccccc1C1=C([N+](=O)[O-])C(c2ccccc2)C(C#N)=C(N)O1 (stereo unspecified)
inactive: [1] 42.8 µM | [4] 15 µM | [5] 35.6 µM | [19] 34.5 µM | [6] > 100 µM | [7] > 100 µM | [8] > 100 µM | [9] > 100 µM | [20] > 100 µM | [10] > 100 µM | [11] > 100 µM | [12] 35.9 µM | [13] 24.7 µM | [14] > 100 µM | [16] > 100 µM | [17] 30.7 µM | [18] 50.8 µM

C/C(=N\Nc1ccc([N+](=O)[O-])cc1[N+](=O)[O-])c1sc(-n2nc(-c3ccccc3)cc2-c2ccccc2)nc1C
inactive: [1] 12.6 µM | [2] 43.9 µM | [3] 19.8 µM | [4] 22 µM | [5] 36.7 µM | [19] 20.9 µM | [6] 42.7 µM | [8] 24.5 µM | [9] 29.4 µM | [10] 21.9 µM | [11] 50.1 µM | [12] 26.3 µM | [13] 39.4 µM | [14] 11.9 µM | [15] 46.5 µM | [16] 44.4 µM | [17] 53.6 µM | [18] 24.8 µM

CCOC(=O)C1(C#N)CC1
inactive: [1] > 100 µM | [2] > 100 µM | [3] > 100 µM | [4] > 100 µM | [5] > 100 µM | [6] > 100 µM | [7] > 100 µM | [8] > 100 µM | [9] > 100 µM | [20] > 100 µM | [10] > 100 µM | [11] > 100 µM | [12] > 100 µM | [14] > 100 µM | [15] > 100 µM | [16] > 100 µM | [17] > 100 µM | [18] > 100 µM
